This experiment has as its system PKC mediated IL-2 production. In words: IL-2 ELISA, human primary T cell, anti CD3+CD28+. Type of experiment: cell-based. Conditions: human primary T cells stimulated with αCD3 and αCD28, 24 hours. The method in brief: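 Human peripheral blood T cells, pre-expanded with αCD3/αCD28 and IL-2 and then washed free of IL-2, were pre-incubated with compound for 1 h at 37° C. They were then stimulated on plates coated with […] αCD3 and 5 μg/ml αCD28, or with 0.5 ng/ml PMA plus 0.1 uM ionomycin in the counter assay. IL-2 in supernatants was measured by ELISA after 24 h.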

Molecules are shown by their SMILES.

Compound `Cn1nnn(-c2cc(Nc3ncc(F)c(NC4CC5CCCN5C(C)(C)C4)n3)ccc2OC2COC2)c1=O` (racemic) [Compound 38, 1-(5-(5-fluoro-4-(octahydro-5,5-dimethylindolizin-7-ylamino)pyrimidin-2-ylamino)-2-(oxetan-3-yloxy)phenyl)-4-methyl-1H-tetrazol-5(4H)-one] returned a concentration for a half-maximal effect (EC50) (Homo sapiens, T-cell, 24 h) of 100 to 500 nM. The compound `CC1(O)COc2ccc(Nc3ncc(F)c(N[C@@H]4C[C@@H]5CCCN5C(C)(C)C4)n3)cc2-n2nnnc21` (some centres unmarked) [Compound 127] gave a concentration giving a half-maximal response (EC50) of less than 100 nM. In turn, `[2H]C([2H])(O)C([2H])([2H])Oc1cc(F)c(Nc2ncc(F)c(N[C@@H]3C[C@@H]4CCCN4C(C)(C)C3)n2)cc1-n1nnn(C)c1=O` [Compound 221, 1-(5-((4-(((7R,8aS)-5,5-dimethyloctahydroindolizin-7-yl)amino)-5-fluoropyrimidin-2-yl)amino)-4-fluoro-2-(2-hydroxyethoxy-1,1,2,2-d4)phenyl)-4-methyl-1,4-dihydro-5H-tetrazol-5-one] gave a concentration for a half-maximal effect (EC50) (T-cell) of less than 100 nM. For `CC1(C)C[C@H](Nc2nc(Nc3ccc(O[C@H]4CCNC[C@@H]4F)c(C(F)(F)F)c3)ncc2F)C[C@@H]2CCCN21` [Compound 121], under “Homo sapiens, T-cell, 24 h”, the half-maximal effective concentration (EC50) was less than 100 nM. `CC1(C)C[C@H](Nc2nc(Nc3ccc(OCCCO)c(C#N)c3)ncc2F)C[C@@H]2CCCN21` [Compound 213, 5-((4-(((7R,8aS)-5,5-dimethyloctahydroindolizin-7-yl)amino)-5-fluoropyrimidin-2-yl)amino)-2-(3-hydroxypropoxy)benzonitrile] yielded an EC50 (Homo sapiens, T-cell, 24 h) of 100 to 500 nM.

`CNc1nnnn1-c1cc(Nc2ncc(F)c(N[C@@H]3C[C@@H]4CCCN4C(C)(C)C3)n2)c(F)cc1OC1COC1` [Compound 258, 5-fluoro-N2-(2-fluoro-5-(5-(methylamino)-1H-tetrazol-1-yl)-4-(oxetan-3-yloxy)phenyl)-N4-((7R,8aS)-octahydro-5,5-dimethylindolizin-7-yl)pyrimidine-2,4-diamine] yielded an EC50 (Homo sapiens, T-cell, 24 h) of 1000 to 10000 nM. Still for that read-out and setting: then `CC1(C)Oc2ccc(Nc3ncc(F)c(N[C@@H]4C[C@@H]5CCCN5C(C)(C)C4)n3)cc2-n2c1nn(C(CO)CCl)c2=O` (stereo partly drawn) [Compound 250, 5-fluoro-N2-(1H-2,4-dihydron-4,4-dimethyl-2-(3-chloropropanol-2-yl)[1,2,4]triazolo[3,4-c][1,4]benzoxazin-1-one-8-yl)-N4-((7R,8aS)-octahydro-5,5-dimethylindolizin-7-yl)pyrimidine-2,4-diamine], with 1000 to 10000 nM; and `CC1(C)C[C@H](Nc2nc(Nc3ccc(OCCO)c(-n4nnnc4C4CC4)c3)ncc2F)C[C@@H]2CCCN21` [Compound 129, 2-(2-(5-cyclopropyl-1H-tetrazol-1-yl)-4-((4-(((7R,8aS)-5,5-dimethyloctahydroindolizin-7-yl)amino)-5-fluoropyrimidin-2-yl)amino)phenoxy)ethan-1-ol], with less than 100 nM. With `COc1ccc(Nc2ncc(F)c(N[C@H]3CCN4[C@@H](CCC4(C)C)C3)n2)cc1OC(F)F` [Compound 299, N2-(3-(Difluoromethoxy)-4-methoxyphenyl)-N4-((7S,8aS)-3,3-dimethyloctahydroindolizin-7-yl)-5-fluoropyrimidine-2,4-diamine], under “Homo sapiens, T-cell, 24 h”, the concentration for a half-maximal effect (EC50) lay in the range of 100 to 500 nM. Still for that read-out and setting: then `COc1cc(Nc2ncc(Cl)c(N[C@@H]3C[C@@H]4CCCN4C(C)(C)C3)n2)cc(OC)c1` [Compound 162, 5-chloro-N2-(3,5-dimethoxyphenyl)-N4-((7R,8aS)-5,5-dimethyloctahydroindolizin-7-yl)pyrimidine-2,4-diamine], with 100 to 500 nM; and `Cn1nnn(-c2cc(Nc3ncc(F)c(N[C@@H]4C[C@@H]5CCCN5C(C)(C)C4)n3)ccc2N2CCN(C3COC3)CC2)c1=O` [Compound 117, 1-(5-((4-(((7R,8aS)-5,5-dimethyloctahydroindolizin-7-yl)amino)-5-fluoropyrimidin-2-yl)amino)-2-(4-(oxetan-3-yl)piperazin-1-yl)phenyl)-4-methyl-1,4-dihydro-5H-tetrazol-5-one], with 1000 to 10000 nM; and `Fc1cc(C2CC2)c(-n2cnnn2)cc1Nc1ncc(F)c(NC2CCN3CCCC3C2)n1` (racemic) [Compound 24, (±)-N^2-(4-cyclopropyl-2-fluoro-5-(1H-tetrazol-1-yl)phenyl)-5-fluoro-n^4-(octahydroindolizin-7-yl)pyrimidine-2,4-diamine], with 100 to 500 nM. Same read-out and setting: then `CC1(C)CC[C@H]2C[C@@H](Nc3nc(Nc4ccc(OC5CC(OCc6ccccc6)C5)c(Cl)c4)ncc3F)CCN21` (stereo partly drawn) [Compound 310, N2-(4-(3-(Benzyloxy)cyclobutoxy)-3-chlorophenyl)-N4-((7S,8aS)-3,3-dimethyloctahydroindolizin-7-yl)-5-fluoropyrimidine-2,4-diamine], with 1000 to 10000 nM. For `[2H]C1(Oc2ccc(Nc3ncc(F)c(N[C@H]4CCN5[C@@H](CCC5(C)C)C4)n3)cc2Cl)CC(OCc2ccccc2)C1` (stereo partly drawn) [Compound 311, N2-(4-(3-(benzyloxy)cyclobutoxy-1-d)-3-chlorophenyl)-N4-((7S,8aS)-3,3-dimethyloctahydroindolizin-7-yl)-5-fluoropyrimidine-2,4-diamine], the EC50 (Homo sapiens, T-cell, 24 h) lay within 1000 to 10000 nM. Still for that read-out and setting: then `CC1(C)C[C@H](Nc2nc(Nc3ccc4c(c3)OCC(=O)N4CC3CC3)ncc2F)C[C@@H]2CCCN21` [Compound 104, 4-(cyclopropylmethyl)-7-((4-(((7R,8aS)-5,5-dimethyloctahydroindolizin-7-yl)amino)-5-fluoropyrimidin-2-yl)amino)-2H-benzo[b][1,4]oxazin-3(4H)-one], with 100 to 500 nM; and `CCc1cc(F)c(Nc2ncc(F)c(N[C@@H]3C[C@@H]4CCCN4C(C)(C)C3)n2)cc1-n1nnn(C)c1=O` [Compound 95, 1-(5-(4-((7R,8aS)-octahydro-5,5-dimethylindolizin-7-ylamino)-5-fluoropyrimidin-2-ylamino)-2-ethyl-4-fluorophenyl)-4-methyl-1H-tetrazol-5(4H)-one], with less than 100 nM; and `Cn1nc2n(c1=O)-c1cc(Nc3ncc(F)c(N[C@@H]4C[C@@H]5CCCN5C(C)(C)C4)n3)ccc1OCC2(C)O` (stereo partly drawn) [Compound 292, 5-fluoro-N2-(1H-2,3,4,5-tetrahydron-2,4-dimethyl-4-hydroxy-[1,2,4]triazolo[4,5-c][1,5]benzoxazepin-1-one-9-yl)-N4-((7R,8aS)-octahydro-5,5-dimethylindolizin-7-yl)pyrimidine-2,4-diamine], with 500 to 1000 nM.

As to `COCC1(COC)Oc2ccc(Nc3ncc(F)c(N[C@@H]4C[C@@H]5CCCN5C(C)(C)C4)n3)cc2-n2nnnc21` [Compound 316, N^2-(4,5-dihydro-4,4-bis(methoxymethyl)tetrazolo[5,1-c][1,4]benzoxazin-8-yl)-N^4-((7R,8aS)-octahydro-5,5-dimethylindolizin-7-yl)-5-fluoropyrimidin-2,4-diamine], the half-maximal effective concentration (EC50) (Homo sapiens, T-cell, 24 h) was less than 100 nM.

`COc1cc(Nc2ncc(F)c(N[C@@H]3C[C@@H]4CCCN4C(C)(C)C3)n2)cc(OC)c1OC` [Compound 156, N4-((7R,8aS)-5,5-dimethyloctahydroindolizin-7-yl)-5-fluoro-N2-(3,4,5-trimethoxyphenyl)pyrimidine-2,4-diamine] returned a concentration giving a half-maximal response (EC50) (Homo sapiens, T-cell, 24 h) of 1000 to 10000 nM. The same measure, in the same setting: then `CC1(C)C[C@H](Nc2nc(Nc3ccc(O[C@@H]4CCNC[C@H]4F)c(C(F)(F)F)c3)ncc2F)C[C@@H]2CCCN21` [Compound 119], with less than 100 nM; and `CN1C(=O)COc2ccc(Nc3ncc(F)c(N[C@@H]4C[C@@H]5CCCN5C(C)(C)C4)n3)cc21` [Compound 315], with 1000 to 10000 nM. The same measure, in the same setting: then `CC1(C)CC[C@H]2C[C@@H](Nc3nc(Nc4ccc(N5CC6(COC6)C5)c(OC(F)F)c4)ncc3F)CCN21` [Compound 302, N2-(3-(Difluoromethoxy)-4-(2-oxa-6-azaspiro[3.3]heptan-6-yl)phenyl)-N4-((7S,8aS)-3,3-dimethyloctahydroindolizin-7-yl)-5-fluoropyrimidine-2,4-diamine], with 500 to 1000 nM. The compound `CC(C)N1CCC(Oc2ccc(Nc3ncc(F)c(N[C@H]4C[C@H]5CCCN5C(C)(C)C4)n3)cc2OC(F)F)CC1` (single isomer, unassigned) [Compound 7, (R/S, S/R, R/R, S/S)-N^2-(4-(1-isopropylpiperidin-4-yloxy)-3-(difluoromethoxy)phenyl)-5-fluoro-N^4-(octahydro-5,5-dimethylindolizin-7-yl)pyrimidine-2,4-diamine] returned a half-maximal effective concentration (EC50) of 1000 to 10000 nM.

With `CO[C@@H](C)COc1cc(F)c(Nc2ncc(Cl)c(N[C@@H]3C[C@@H]4CCCN4C(C)(C)C3)n2)cc1-n1nnn(C)c1=O` [Compound 238, 1-(5-((5-chloro-4-(((7R,8aS)-5,5-dimethyloctahydroindolizin-7-yl)amino)pyrimidin-2-yl)amino)-4-fluoro-2-((S)-2-methoxypropoxy)phenyl)-4-methyl-1,4-dihydro-5H-tetrazol-5-one], the EC50 (Homo sapiens, T-cell, 24 h) fell in the range of 500 to 1000 nM.

Turning to `CC1(C)CC[C@H]2C[C@@H](Nc3nc(Nc4ccc(OCCCO)c(OC(F)F)c4)ncc3F)CCN21` [Compound 307, 3-(2-(Difluoromethoxy)-4-((4-(((7S,8aS)-3,3-dimethyloctahydroindolizin-7-yl)amino)-5-fluoropyrimidin-2-yl)amino)phenoxy)propan-1-ol], the concentration giving a half-maximal response (EC50) (Homo sapiens, T-cell, 24 h) lay within 100 to 500 nM. Under “Homo sapiens, T-cell, 24 h”, `Cn1nnn(-c2cc(Nc3ncc(C#N)c(N[C@@H]4C[C@@H]5CCCN5C(C)(C)C4)n3)c(F)cc2OC2CCOCC2)c1=O` [Compound 115, 4-(((7R,8aS)-5,5-dimethyloctahydroindolizin-7-yl)amino)-2-((2-fluoro-5-(4-methyl-5-oxo-4,5-dihydro-1H-tetrazol-1-yl)-4-((tetrahydro-2H-pyran-4-yl)oxy)phenyl)amino)pyrimidine-5-carbonitrile] registered an EC50 of 500 to 1000 nM.

As usually defined, the EC50 is the midpoint of the concentration-response curve. Low values mean higher potency in that assay, high ones lower potency in that assay.

The values above are taken from patent publication US9682976B2, “Protein kinase C inhibitors and uses thereof” (Rigel Pharmaceuticals, Inc., priority 2012, dated 2017).
